Experimental data from patent US20230031406A1, “COMPOUNDS AND COMPOSITIONS FOR TREATING CONDITIONS ASSOCIATED WITH NLRP ACTIVITY” (Novartis AG, priority 2018, published 2023).
Where two headings read alike, the source gives them in different places. One block for each molecule: values may come before it.

Tested on: PMA-differentiated THP-1 cells
Test: IL-1β production in PMA-differentiated THP-1 cells stimulated with gramicidin (hTHP-1 assay containing 2% fetal bovine serum; Procedures 1 and 2)
Format: cell-based, human
Conditions: 2% fetal bovine serum
Procedure, shortened: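 Compound titrations in 0.37% final DMSO were added to THP-1 cells that had been plated after 16-18 h PMA treatment, 50,000 per well in 2% FBS. One hour later the cells received gramicidin (5 μM, 2 h) and were centrifuged. HTRF detected IL-1β in the collected supernatants.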

[1] = Homo sapiens, THP-1, Table B2, numeric bounds, read-out: hTHP-1 IC50
[2] = Table B2, class symbols, read-out: hTHP-1 IC50
[3] = Table B4, class symbols, read-out: hTHP-1 IC50
[4] = Homo sapiens, THP-1, Table B2, class symbols, read-out: hTHP-1 IC50
[5] = Homo sapiens, THP-1, Table B3, hTHP-1 assay, class symbols, read-out: IC50

Compound: CC(C)n1cc(S(N)(=O)=NC(=O)Nc2c3c(nc4c2CCC4(C)C)CCC3)c(CO)n1 (single isomer, unassigned) [Compound 653b, (S) or (R)-N′-((3,3-dimethyl-1,2,3,5,6,7-hexahydrodicyclopenta [b,e]pyridin-8-yl)carbamoyl)-3-(hydroxymethyl)-1-isopropyl-1H-pyrazole-4-sulfonimidamide]
IC50 [1]: > 30 µM

Compound: CC1(C)CCc2c1nc1c(c2NC(=O)N=S(N)(=O)c2cnc(C(C)(O)CO)s2)CCC1 (centres unmarked) [Compound 201, 2-(1,2-Dihydroxypropan-2-yl)-N′-((3,3-dimethyl-1,2,3,5,6,7-hexahydrodicyclopenta [b,e]pyridin-8-yl)carbamoyl)thiazole-5-sulfonimidamide]
IC50 [2]: 0.2 to 1 µM

Compound: CC(C)(O)c1ncc(S(N)(=O)=NC(=O)Nc2c3c(nc4c2CCC4F)CCC3)s1 (single isomer, unassigned) [Compound 183b, (S,S) or (S,R)-N′-((3-fluoro-1,2,3,5,6,7-hexahydrodicyclo-penta[b,e]pyridin-8-yl)carbamoyl)-2-(2-hydroxypropan-2-yl)thiazole-5-sulfonimidamide]
IC50 (Homo sapiens, THP-1, Table B1, numeric bounds, read-out: Average IC50 of compounds in hTHP-1 assay: hTHP-1 IC50): > 30 µM

Compound: CCn1cc(F)c(S(N)(=O)=NC(=O)Nc2c3c(nc(C(F)(F)F)c2-c2ccccc2F)CCC3)n1 (single isomer, unassigned) [Example 779, (R) or (S)-1-ethyl-4-fluoro-N′-((3-(2-fluorophenyl)-2-(trifluoromethyl)-6,7-dihydro-5H-cyclopenta[b]pyridin-4-yl)carbamoyl)-1H-pyrazole-3-sulfonimidamide]
IC50 [3]: 0.008 to 0.04 µM

Compound: CC1CCc2c1nc1c(c2NC(=O)N=S(N)(=O)c2ccn(C(F)F)n2)CCC1 (single isomer, unassigned) [Compound 184b, (S,S) or (S,R)-1-(difluoro-methyl)-N′-((3-methyl-1,2,3,5,67-hexahydro-dicyclopenta[b,e]pyridin-8-yl)carbamoyl)-1H-pyrazole-3-sulfonimidamide]
IC50 (Table B1, class symbols, read-out: Average IC50 of compounds in hTHP-1 assay: hTHP-1 IC50): 5 to 30 µM

Compound: C[C@@H]1CCc2c1nc1c(c2NC(=O)N=S(N)(=O)c2cnc([C@](C)(O)CO)s2)CCC1 (single isomer, unassigned) [Example 731]
IC50 (Homo sapiens, THP-1, Table B4, class symbols, read-out: hTHP-1 IC50): 0.04 to 0.2 µM

Compound: CC1(C)CCc2c1nc1c(c2NC(=O)N=S(N)(=O)c2sc(C(C)(O)CO)cc2F)CCC1 (single isomer, unassigned) [Compound 640a, (R, R) and (S, R) or (R, S) and (S, S)-5-(1,2-Dihydroxypropan-2-yl)-N′-((3,3-dimethyl-1,2,3,5,6,7-hexahydrodicyclopenta [b,e]pyridin-8-yl)carbamoyl)-3-fluorotliophene-2-sulfonimidamide]
IC50 [2]: 0.008 to 0.04 µM

Compound: Cc1c(C2CC2)nc2c(c1NC(=O)N=S(N)(=O)c1cc(C(C)(C)O)n(-c3ccccc3)n1)CCC2 (single isomer, unassigned) [Compound 651a, (S) or (R)-N′-((2-cyclopropyl-3-methyl-6,7-dihydro-5H-cyclopenta[b]pyridin-4-yl)carbamoyl)-5-(2-hydroxypropan-2-yl)-1-phenyl-1H-pyrazole-3-sulfonimidamide]
IC50 [2]: 5 to 30 µM

Compound: CCn1ccc([S@@](N)(=O)=NC(=O)Nc2c(C)c(C(F)(F)F)nc3c2CCC3)n1 [Compound 731a]
IC50 [4]: 5 to 30 µM

Compound: Cc1c(C(F)(F)F)nc2c(c1NC(=O)N=S(N)(=O)c1cc(C(C)(C)O)cs1)CCC2 (single isomer, unassigned) [Compound 624a, (S) or (R)-4-(2-Hydroxypropan-2-yl)-N′-((3-methyl-2-(trifluoromethyl)-6,7-dihydro-5H-cyclopenta[b]pyridin-4-yl)carbamoyl) thiophene-2-sulfonimidamide]
IC50 [2]: 1 to 5 µM

Compound: Cc1c(C(F)(F)F)nc2c(c1NC(=O)N=S(N)(=O)c1cnc(C(C)(O)CO)s1)CCC2 (single isomer, unassigned) [Compound 605g, (S, S) or (R, S)-2-(1,2-Dihydroxypropan-2-yl)-N′-((3-methyl-2-(trifluoromethyl)-6,7-dihydro-5H-cyclopenta[b]pyridin-4-yl)carbamoyl) thiazole-5-sulfonimidamide]
IC50 [2]: 5 to 30 µM

Compound: CC(C)(O)c1cnc(S(N)(=O)=NC(=O)Nc2c3c(nc4c2CCC42CC2)CCC3)s1 (single isomer, unassigned) [Compound 683a, (R) or (S)-5-(2-Hydroxypropan-2-yl)-N′-((1′,5′,6′,7′-tetrahydro-2′H-spiro[cyclopropane-1,3′-dicyclopenta[b,e]pyridin]-8′-yl)carbamoyl) thiazole-2-sulfonimidamide]
IC50 [2]: 0.2 to 1 µM

Compound: CC(C)n1cc(F)c(S(N)(=O)=NC(=O)Nc2c3c(nc4c2CC[C@H]4C)CCC3)n1 (single isomer, unassigned) [Example 757, (R) or (S)-4-fluoro-1-isopropyl-N′-(((R)-3-methyl-1,2,3,5,6,7-hexahydrodicyclopenta[b,e]pyridin-8-yl)carbamoyl)-1H-pyrazole-3-sulfonimidamide]
IC50 [3]: 0.008 to 0.04 µM

Next, values leading:

IC50 [4]: 1 to 5 µM
Compound: CC(C)(O)c1cc(Br)c(S(N)(=O)=NC(=O)Nc2c3c(nc4c2CCC4)CCC3)s1 (single isomer, unassigned) [Compound 690b, (R) or (S)-3-Bromo-N′-((1,2,3,5,6,7-hexahydrodicyclopenta [b,e]pyridin-8-yl)carbamoyl)-5-(2-hydroxypropan-2-yl)thiophene-2-sulfonimidamide]

IC50 [2]: 1 to 5 µM
Compound: CC(C)c1cnc(F)c(C(C)C)c1NC(=O)N=S(N)(=O)c1cnc(C(C)(C)O)s1 (single isomer, unassigned) [Compound 115b, (R) or (S)-N′-((2-fluoro-3,5-diisopropylpyridin-4-yl)carbamoyl)-2-(2-hydroxypropan-2-yl)thiazole-5-sulfonimidamide]

IC50 [4]: 5 to 30 µM
Compound: Cc1c(C2CC2)nc2c(c1NC(=O)N=S(N)(=O)c1cnn3c1OCCC3)CCC2 (single isomer, unassigned) [Compound 306b, (R) or (S)-N′-((2-cyclopropyl-3-methyl-6,7-dihydro-5H-cyclopenta[b]pyridin-4-yl)carbamoyl)-6,7-dihydro-5H-pyrazolo[5,1-b][1,3] oxazine-3-sulfonimidamide]

IC50 (Homo sapiens, THP-1, Table B1, class symbols, read-out: Average IC50 of compounds in hTHP-1 assay: hTHP-1 IC50): 5 to 30 µM
Compound: CC(C)c1cncc(C(C)C)c1NC(=O)N=S(N)(=O)c1cnc(C(C)(C)O)s1 (centres unmarked) [Compound 160, N′-((3,5-diisopropylpyridin-4-yl)carbamoyl)-2-(2-hydroxypropan-2-yl)thiazole-5-sulfonimidamide]

IC50 [4]: 1 to 5 µM
Compound: CC(C)c1nc(CO)c(S(N)(=O)=NC(=O)Nc2c3c(nc4c2CCC4(C)C)CCC3)s1 (centres unmarked) [Compound 680, N′-((3,3-dimethyl-1,2,3,5,6,7-hexahydrodicyclopenta[b,e]pyridin-8-yl)carbamoyl)-4-(hydroxymethyl)-2-isopropylthiazole-5-sulfonimidamide]

IC50 [5]: 5 to 30 µM
Compound: Cc1nc2c(c(NC(=O)N=S(N)(=O)c3sc(C(O)(CO)CO)nc3CO)c1C(F)(F)F)CCC2 (centres unmarked) [Example 587, 4-(Hydroxymethyl)-N′-((2-methyl-3-(trifluoromethyl)-6,7-dihydro-5H-cyclopenta[b]pyridin-4-yl)calbamoyl)-2-(1,2,3-trihydroxypropan-2-yl)thiazole-5-sulfonimidamide]

IC50 [4]: 0.04 to 0.2 µM
Compound: C[C@](O)(CO)c1cc(F)c(S(N)(=O)=NC(=O)Nc2c3c(nc4c2CCC42CC2)CCC3)s1 (some centres unmarked) [Compound 716a]

IC50 [1]: > 30 µM
Compound: CC(C)c1cc(NC(=O)N=S(N)(=O)c2cc(C(C)(C)O)cs2)c2c(n1)CCC2 (single isomer, unassigned) [Compound 182a, (S) or (R)-4-(2-Hydroxypropan-2-yl)-N′-((2-isopropyl-6,7-dihydro-5H-cyclopenta[b]pyridin-4-yl)carbamoyl) thiophene-2-sulfonimidamide]

IC50 [1]: > 30 µM
Compound: CCOC(=O)c1nc2c(c(NC(=O)N=S(N)(=O)c3cnc(C(C)(C)O)s3)c1C)CCC2 (centres unmarked) [Compound 706]

IC50 [2]: 5 to 30 µM
Compound: Cc1c(C(F)(F)F)nc2c(c1NC(=O)N=S(N)(=O)c1cnc(C(C)(C)O)s1)CCC2 (single isomer, unassigned) [Compound 661b, (S) or (R)-2-(2-Hydroxypropan-2-yl)-N′-((3-methyl-2-(trifluoromethyl)-6,7-dihydro-5H-cyclopenta[b]pyridin-4-yl)carbamoyl)thiazole-5-sulfonimidamide]

IC50 [5]: 0.04 to 0.2 µM
Compound: CC1(C)CCc2c1nc1c(c2NC(=O)N=S(N)(=O)c2cnc(C(C)(CO)CO)s2)CCC1 (centres unmarked) [Example 604, 2-(1,3-Dihydroxy-2-methylpropan-2-yl)-N′-((3,3-dimethyl-1,2,3,5,6,7-hexahydrodicyclopenta[b,e]pyridin-8-yl)carbamoyl)thiazole-5-sulfonimidamide]

IC50 [2]: 0.04 to 0.2 µM
Compound: CC(C)(O)c1sc(S(N)(=O)=NC(=O)Nc2c3c(nc4c2CCC4(C)C)CCC3)cc1F (single isomer, unassigned) [Compound 613a, (R) or (S)-N′-((3,3-dimethyl-1,2,3,5,6,7-hexahydrodicyclopenta [b,e]pyridin-8-yl)carbamoyl)-4-fluoro-5-(2-hydroxypropan-2-yl)thiophene-2-sulfonimidamide]

IC50 [1]: > 30 µM
Compound: NS(=O)(=NC(=O)Nc1c2c(nc3c1CCC3)CCC2)c1ccn(CC(F)(F)F)n1 (single isomer, unassigned) [Compound 685a, (S) or (R)-N′-((1,2,3,5,6,7-hexahydrodicyclopenta [b,e]pyridin-8-yl)carbamoyl)-1-(2,2,2-trifluoroethyl)-1H-pyrazole-3-sulfonimidamide]
